In patent US8629168B2, “Benzoxazoles and oxazolopyridines being useful as janus kinases inhibitors” (priority 2006, dated 2014):

Biological target: T1, GST-JAK2(808-1132) (Homo sapiens, UniProt O60674)
T1 construct: GST-JAK2(808-1132) is purchased from Invitrogen; purchased Invitrogen (Carlsbad, USA) #4288
Test: EPK JAK/TYK-kinase family profiling assay (Caliper mobility shift), JAK2
Format: biochemical
Conditions: Caliper mobility shift assay of Example 187, 20 μM ATP, read-out: IC50 with Test in present Example
Summary of the method: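 Caliper mobility-shift assay with the GST-tagged kinase domain and a fluorescently labeled peptide substrate plus ATP, run 60 min at 30° C and then stopped with EDTA buffer. Turnover was taken as the substrate/product ratio. Compounds were tested at eight final concentrations from 10 to 0.003 μM.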

T1 sequence (O60674 808-1132): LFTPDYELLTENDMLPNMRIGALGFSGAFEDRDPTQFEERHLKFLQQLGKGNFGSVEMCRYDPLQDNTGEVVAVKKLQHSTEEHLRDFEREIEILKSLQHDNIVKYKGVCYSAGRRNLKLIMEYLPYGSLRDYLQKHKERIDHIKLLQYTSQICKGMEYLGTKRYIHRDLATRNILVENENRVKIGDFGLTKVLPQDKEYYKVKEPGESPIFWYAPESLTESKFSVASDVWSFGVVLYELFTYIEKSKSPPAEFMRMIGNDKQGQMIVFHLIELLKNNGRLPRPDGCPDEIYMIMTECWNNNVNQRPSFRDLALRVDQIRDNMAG

SMILES	IC50 [µM]
CN1CCN(c2ccc(Nc3nc4cccc(-c5ccc(CN6CCS(=O)(=O)CC6)cc5)c4o3)cc2)CC1 [Example 89, {7-[4-(1,1-Dioxo-1lambda*6*-thiomorpholin-4-ylmethyl)-phenyl]-benzooxazol-2-yl}-[4-(4-methyl-piperazin-1-yl)-phenyl]-amine]	0.06
Cc1cc(-c2cccc3nc(Nc4ccc(N5CCN(C6CC6)CC5)cc4)oc23)ccc1C(=O)N1CCOCC1 [Example 97, (4-{2-[4-(4-Cyclopropyl-piperazin-1-yl)-phenylamino]-benzooxazol-7-yl}-2-methyl-phenyl)-morpholin-4-yl-methanone]	0.0215
COC(=O)c1ccc(Nc2nc3cccc(-c4ccc(C(=O)N5CCOCC5)cc4)c3o2)cc1OC [Example 149, 2-Methoxy-4-{7-[4-(morpholine-4-carbonyl)-phenyl]-benzooxazol-2-ylamino}-benzoic acid methyl ester]	0.062
CCN1CCN(c2ccc(Nc3nc4ccnc(-c5cc(F)c(CN6CCS(=O)(=O)CC6)c(F)c5)c4o3)cc2C)CC1 [Example 153, {4-[4-(1,1-Dioxo-1lambda*6*-thiomorpholin-4-ylmethyl)-3,5-difluoro-phenyl]-oxazolo[5,4-c]pyridin-2-yl}-[4-(4-ethyl-piperazin-1-yl)-3-methyl-phenyl]-amine]	0.026
CCN1CCN(c2ccc(Nc3nc4cccc(-c5ccc(CN6CCOCC6)c(F)c5)c4o3)cc2C)CC1 [Example 87, [4-(4-Ethyl-piperazin-1-yl)-3-methyl-phenyl]-[7-(3-fluoro-4-morpholin-4-ylmethyl-phenyl)-benzooxazol-2-yl]-amine]	0.0048
Cc1cc(Nc2nc3cccc(-c4ccc(CN5CCOCC5)c(C(F)(F)F)c4)c3o2)ccc1C(=O)N(C)C [Example 86, 2,N,N-Trimethyl-4-[7-(4-morpholin-4-ylmethyl-3-trifluoromethyl-phenyl)-benzooxazol-2-ylamino]-benzamide]	0.079
Cc1cc(Nc2nc3cccc(-c4ccc(CN5CCS(=O)(=O)CC5)c(F)c4)c3o2)ccc1C(=O)N(C)C [Example 84, 4-{7-[4-(1,1-Dioxo-1lambda*6*-thiomorpholin-4-ylmethyl)-3-fluoro-phenyl]-benzooxazol-2-ylamino}-2,N,N-trimethyl-benzamide]	< 0.003
CCN1CCN(c2ccc(Nc3nc4cccc(-c5ccc(S(N)(=O)=O)cc5)c4o3)cc2C)CC1 [Example 112, 4-{2-[4-(4-Ethyl-piperazin-1-yl)-3-methyl-phenylamino]-benzooxazol-7-yl}-benzenesulfonamide]	0.0175
Cc1cc(Nc2nc3cccc(-c4cc(F)c(CN5CCS(=O)(=O)CC5)c(F)c4)c3o2)ccc1C(=O)N(C)CCN(C)C [Example 159, N-(2-Dimethylamino-ethyl)-4-{7-[4-(1,1-dioxo-1lambda*6*-thiomorpholin-4-ylmethyl)-3,5-difluoro-phenyl]-benzooxazol-2-ylamino}-2,N-dimethyl-benzamide]	0.0062
CCN1CCN(c2ccc(Nc3nc4cccc(-c5ccc(C(C)(C)C(=O)N6CCOCC6)cc5)c4o3)cc2C)CC1 [Example 111, 2-(4-{2-[4-(4-Ethyl-piperazin-1-yl)-3-methyl-phenylamino]-benzooxazol-7-yl}-phenyl)-2-methyl-1-morpholin-4-yl-propan-1-one]	0.0165
Cc1cc(Nc2nc3cccc(-c4ccc(CC(=O)N5CCOCC5)cc4)c3o2)ccc1C(=O)N(C)C [Example 70, 2,N,N-Trimethyl-4-{7-[4-(2-morpholin-4-yl-2-oxo-ethyl)-phenyl]-benzooxazol-2-ylamino}-benzamide]	0.0062
COc1ccc(Nc2nc3cccc(-c4ccc(C(=O)N5CCOCC5)c(C)c4)c3o2)cc1N1CCN(C)CC1 [Example 127, (4-{2-[4-Methoxy-3-(4-methyl-piperazin-1-yl)-phenylamino]-benzooxazol-7-yl}-2-methyl-phenyl)-morpholin-4-yl-methanone]	0.03
Cc1cc(Nc2nc3cccc(-c4ccc(C(=O)N5CCOCC5)cc4F)c3o2)ccc1C(=O)N(C)C [Example 76, 4-{7-[2-Fluoro-4-(morpholine-4-carbonyl)-phenyl]-benzooxazol-2-ylamino}-2,N,N-trimethyl-benzamide]	0.013
CCN(CC)C(=O)c1ccc(Nc2nc3cccc(-c4cc(F)c(CN5CCN(C(C)=O)CC5)c(F)c4)c3o2)cc1C [Example 117, 4-{7-[4-(4-Acetyl-piperazin-1-ylmethyl)-3,5-difluoro-phenyl]-benzooxazol-2-ylamino}-N,N-diethyl-2-methyl-benzamide]	0.0295
Cc1cc(Nc2nc3cccc(-c4cc(F)c(CN5CCOCC5)c(F)c4)c3o2)cn(C)c1=O [Example 161, 5-[7-(3,5-Difluoro-4-morpholin-4-ylmethyl-phenyl)-benzooxazol-2-ylamino]-1,3-dimethyl-1H-pyridin-2-one]	0.08
Cc1cc(Nc2nc3cccc(-c4cc(F)c(CN5CCOCC5)c(F)c4)c3o2)ccc1N1CCOCC1 [Example 163, [7-(3,5-Difluoro-4-morpholin-4-ylmethyl-phenyl)-benzooxazol-2-yl]-(3-methyl-4-morpholin-4-yl-phenyl)-amine]	0.0116
CN1CCN(c2ccc(Nc3nc4cccc(-c5ccc(C(=O)N6CCOCC6)c(F)c5)c4o3)cc2C#N)CC1 [Example 90, 5-{7-[3-Fluoro-4-(morpholine-4-caronyl)-phenyl]-benzooxazol-2-ylamino}-2-(4-methyl-piperazin-1-yl)-benzonitrile]	0.0565
CN(C)C(=O)c1ccc(Nc2nc3cccc(-c4ccc(S(N)(=O)=O)cc4)c3o2)cc1 [Example 146, N,N-Dimethyl-4-[7-(4-sulfamoyl-phenyl)-benzooxazol-2-ylamino]-benzamide]	0.0195
Cc1cc(Nc2nc3cccc(-c4ccc(CC(=O)N5CCOCC5)cc4)c3o2)ccc1C(=O)N1CCN(C)CC1 [Example 72, 2-(4-{2-[3-Methyl-4-(4-methyl-piperazine-1-carbonyl)-phenylamino]-benzooxazol-7-yl}-phenyl)-1-morpholin-4-yl-ethanone]	0.017
O=C1Cc2cc(Nc3nc4cccc(-c5cc(F)c(CN6CCOCC6)c(F)c5)c4o3)ccc2N1 [Example 134, 5-[7-(3,5-Difluoro-4-morpholin-4-ylmethyl-phenyl)-benzooxazol-2-ylamino]-1,3-dihydro-indol-2-one]	0.098
COc1cc(Nc2nc3cccc(-c4ccc(Cn5ccnc5)cc4)c3o2)cc(OC)c1OC [Example 136, [7-(4-Imidazol-1-ylmethyl-phenyl)-benzooxazol-2-yl]-(3,4,5-trimethoxy-phenyl)-amine]	0.018
Cc1cc(Nc2nc3cccc(-c4ccc(CC(=O)N5CCOCC5)c(F)c4)c3o2)ccc1C(=O)N1CCN(C)CC1 [Example 73, 2-(2-Fluoro-4-{2-[3-methyl-4-(4-methyl-piperazine-1-carbonyl)-phenylamino]-benzooxazol-7-yl}-phenyl)-1-morpholin-4-yl-ethanone]	0.00515
Cc1cc(Nc2nc3cccc(-c4ccc(C(C)(C)C(=O)N5CCOCC5)cc4)c3o2)ccc1CN1CCOCC1 [Example 167, 2-Methyl-2-{4-[2-(3-methyl-4-morpholin-4-ylmethyl-phenylamino)-benzooxazol-7-yl]-phenyl}-1-morpholin-4-yl-propan-1-one]	0.014
COc1cc(Nc2nc3cccc(-c4ccc(CN5CCOCC5)cc4)c3o2)cc(OC)c1OC [Example 138, [7-(4-Morpholin-4-ylmethyl-phenyl)-benzooxazol-2-yl]-(3,4,5-trimethoxy-phenyl)-amine]	0.014
O=C(c1ccc(-c2cccc3nc(Nc4ccc(N5CCNCC5)cc4)oc23)cc1F)N1CCOCC1 [Example 91, {2-Fluoro-4-[2-(4-piperazin-1-yl-phenylamino)-benzooxazol-7-yl]-phenyl}-morpholin-4-yl-methanone]	0.064
COCCN1CCN(c2ccc(Nc3nc4cccc(-c5ccc(C(=O)N6CCOCC6)c(C)c5)c4o3)cc2C)CC1 [Example 66, [4-(2-{4-[4-(2-Methoxy-ethyl)-piperazin-1-yl]-3-methyl-phenylamino}-benzooxazol-7-yl)-2-methyl-phenyl]-morpholin-4-yl-methanone]	0.00645
Cc1cc(Nc2nc3cccc(-c4ccc(C(=O)N5CCOCC5)c(C)c4)c3o2)ccc1C(=O)N(C)C [Example 85, 2,N,N-Trimethyl-4-{7-[3-methyl-4-(morpholine-4-carbonyl)-phenyl]-benzooxazol-2-ylamino}-benzamide]	0.0093
